Source: PubChem BioAssay AID292 (DTP/NCI, 2004)
“And” between values parts separate entries of the source, which are not always exact repeats. Identical values can stand only once. Inconclusive results and toxic doses are left out.

System: B6C3F1 mice, ip Sarcoma M5076, median survival T/C
Assay: NCI In Vivo Anticancer Drug Screen. Data for tumor model Sarcoma M5076 (intraperitoneal) in B6C3F1 mice
Conditions: endpoint: median survival time, schedule: Q04DX004 (ip), higher = longer survival
Method in brief: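 Transplantable tumour in mice; compound-treated vs vehicle-treated groups. Read-out: survival. Value = treated/control ratio.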

[1] = dose: 50.0 mg/kg/injection, vehicle: Klucel (hydroxypropylcellulose) (HPC)
[2] = dose: 100.0 mg/kg/injection, vehicle: Klucel (hydroxypropylcellulose) (HPC)
[3] = dose: 200.0 mg/kg/injection, vehicle: Klucel (hydroxypropylcellulose) (HPC)
[4] = dose: 400.0 mg/kg/injection, vehicle: Klucel (hydroxypropylcellulose) (HPC)
[5] = dose: 50.0 mg/kg/injection, vehicle: saline with Tween-80
[6] = dose: 100.0 mg/kg/injection, vehicle: saline with Tween-80
[7] = dose: 200.0 mg/kg/injection, vehicle: saline with Tween-80
[8] = dose: 400.0 mg/kg/injection, vehicle: saline with Tween-80
[9] = dose: 25.0 mg/kg/injection, vehicle: saline with Tween-80
[10] = dose: 37.5 mg/kg/injection, vehicle: saline with Tween-80
[11] = dose: 75.0 mg/kg/injection, vehicle: saline with Tween-80

CC1=C(N2CCOCC2)C(N2CCOCC2)=C(C)C(=O)C1=O
T/C [1]: 104 % of control
T/C [2]: 100 % of control
T/C [3]: 100 % of control
T/C [4]: 113 % of control
T/C (dose: 800.0 mg/kg/injection, vehicle: Klucel (hydroxypropylcellulose) (HPC)): 95 % of control

O=Cc1ccc(O)c(O)c1
T/C [5]: 100 % of control
T/C [6]: 96 % of control
T/C [7]: 104 % of control
T/C [8]: 104 % of control

Nc1nc2ncn(O)c2c(=O)[nH]1
T/C (dose: 3.12 mg/kg/injection, vehicle: water): 100 % of control
T/C (dose: 6.25 mg/kg/injection, vehicle: water): 100 % of control
T/C (dose: 12.5 mg/kg/injection, vehicle: water): 97 % of control
T/C (dose: 25.0 mg/kg/injection, vehicle: water): 93 % of control
T/C (dose: 50.0 mg/kg/injection, vehicle: water): 101 % of control

C=C1COC(O)(C2OCOC(C3CC(=O)NC(=O)C3)C2O)C1C (configuration not stated)
T/C (dose: 4.0 micrograms/kg/injection, vehicle: water): 112 % of control
T/C (dose: 8.0 micrograms/kg/injection, vehicle: water): 117 % of control
T/C (dose: 13.8 micrograms/kg/injection, vehicle: water): 105 % of control
T/C (dose: 16.0 micrograms/kg/injection, vehicle: water): 117 % of control
T/C (dose: 23.04 micrograms/kg/injection, vehicle: water): 116 % of control
T/C (dose: 38.0 micrograms/kg/injection, vehicle: water): 162 % of control
T/C (dose: 38.4 micrograms/kg/injection, vehicle: water): 110 % of control

CN=C(N)N/N=C(\C)c1ccc2sc3ccc(/C(C)=N/NC(N)=NC)cc3c2c1
T/C [9]: 113 % of control

NNC(=O)c1ccncc1
T/C (dose: 25.0 mg/kg/injection, vehicle: saline): 102 % of control
T/C (dose: 50.0 mg/kg/injection, vehicle: saline): 102 % of control
T/C (dose: 100.0 mg/kg/injection, vehicle: saline): 95 % of control
T/C (dose: 200.0 mg/kg/injection, vehicle: saline): 106 % of control

COc1ccc(OC)c(N2C(=O)C(=O)C(C(C)=O)C2=O)c1 (configuration not stated)
T/C [1]: 104 % of control
T/C [2]: 100 % of control

COc1ccc2[nH]c3ccc4cc[n+](CCN5CCC(C6CCN(CC[n+]7ccc8ccc9[nH]c%10ccc(OC)cc%10c9c8c7)CC6)CC5)cc4c3c2c1
T/C (dose: 16.0 mg/kg/injection, vehicle: water): 157 % of control
T/C (dose: 32.0 mg/kg/injection, vehicle: water): 194 % of control

CCc1n[nH]c(CC)c1CCCCCCOc1ccc(OC)cc1Cl
T/C [9]: 106 % of control
T/C [10]: 100 % of control
T/C [5]: 107 % of control
T/C [11]: 91 % of control
T/C [6]: 97 % of control
T/C [7]: 91 % of control

Nc1ncnc2c1ncn2C1CC2[O][Sn]([c]3ccccc3)([c]3ccccc3)[O]CC2O1 (configuration not stated)
T/C (dose: 31.13 mg/kg/injection, vehicle: distilled water + Tween-80): 95 % of control
T/C (dose: 62.5 mg/kg/injection, vehicle: distilled water + Tween-80): 92 % of control
T/C (dose: 125.0 mg/kg/injection, vehicle: distilled water + Tween-80): 101 % of control
T/C (dose: 250.0 mg/kg/injection, vehicle: distilled water + Tween-80): 101 % of control
T/C (dose: 500.0 mg/kg/injection, vehicle: distilled water + Tween-80): 104 % of control

COc1cc2oc3c(C)c(=O)cc4oc(-c5ccccc5)cc(c2c2c1CCC(c1ccccc1)O2)c43 (configuration not stated)
T/C (dose: 1.75 mg/kg/injection, vehicle: Klucel (hydroxypropylcellulose) (HPC)): 109 % of control
T/C (dose: 3.5 mg/kg/injection, vehicle: Klucel (hydroxypropylcellulose) (HPC)): 102 % of control
T/C (dose: 7.0 mg/kg/injection, vehicle: Klucel (hydroxypropylcellulose) (HPC)): 102 % of control
T/C (dose: 12.5 mg/kg/injection, vehicle: saline with Tween-80): 98 % of control
T/C (dose: 14.0 mg/kg/injection, vehicle: Klucel (hydroxypropylcellulose) (HPC)): 109 % of control
T/C [9]: 98 % of control
T/C (dose: 28.0 mg/kg/injection, vehicle: Klucel (hydroxypropylcellulose) (HPC)): 97 % of control
T/C [5]: 99 % of control and 100 % of control
T/C [6]: 94 % of control and 96 % of control
T/C [7]: 96 % of control and 103 % of control
T/C [8]: 87 % of control
T/C (dose: 800.0 mg/kg/injection, vehicle: saline with Tween-80): 110 % of control

OCCC(N1CCOCC1)C(O)(c1ccccc1)c1ccccc1 (configuration not stated)
T/C [10]: 103 % of control
T/C [11]: 106 % of control
T/C (dose: 150.0 mg/kg/injection, vehicle: saline with Tween-80): 107 % of control
T/C (dose: 300.0 mg/kg/injection, vehicle: saline with Tween-80): 100 % of control
T/C (dose: 600.0 mg/kg/injection, vehicle: saline with Tween-80): 93 % of control

Cc1ccc(N=NN(C)C)cc1NC(=O)NCC(=O)OC(C)(C)C
T/C (dose: 16.25 mg/kg/injection, vehicle: saline with Tween-80): 103 % of control
T/C (dose: 32.5 mg/kg/injection, vehicle: saline with Tween-80): 98 % of control
T/C (dose: 65.0 mg/kg/injection, vehicle: saline with Tween-80): 111 % of control
T/C (dose: 130.0 mg/kg/injection, vehicle: saline with Tween-80): 108 % of control
T/C (dose: 260.0 mg/kg/injection, vehicle: saline with Tween-80): 118 % of control

CSC1SCC2C(=O)N(C)C(C(C)C)C(=O)OCC(NC(=O)c3cnc4ccccc4n3)C(=O)NC(C)C(=O)N(C)C1C(=O)N(C)C(C(C)C)C(=O)OCC(NC(=O)c1cnc3ccccc3n1)C(=O)NC(C)C(=O)N2C (configuration not stated)
T/C (dose: 12.5 micrograms/kg/injection, vehicle: saline with Tween-80): 100 % of control
T/C (dose: 25.0 micrograms/kg/injection, vehicle: saline with Tween-80): 104 % of control
T/C (dose: 50.0 micrograms/kg/injection, vehicle: saline with Tween-80): 110 % of control and 111 % of control
T/C (dose: 100.0 micrograms/kg/injection, vehicle: saline with Tween-80): 114 % of control
T/C (dose: 200.0 micrograms/kg/injection, vehicle: saline with Tween-80): 123 % of control

O=C(N/N=C/c1ccc(O)cc1)c1ccc(OCc2nc3ccccc3[nH]2)cc1
T/C (dose: 25.0 mg/kg/injection, vehicle: Klucel (hydroxypropylcellulose) (HPC)): 96 % of control
T/C [2]: 93 % of control
T/C [4]: 92 % of control

CC[C@@H](C)[C@H]([C@H](CC(=O)N1CCC[C@@H]1[C@@H](OC)[C@H](C)C(=O)N[C@H](Cc1ccccc1)c1nccs1)OC)N(C)C(=O)[C@H](NC(=O)[C@@H](C(C)C)N(C)C)C(C)C
T/C (dose: 8.0 micrograms/kg/injection, vehicle: saline + alcohol): 153 % of control
T/C (dose: 36.0 micrograms/kg/injection, vehicle: saline + alcohol): 153 % of control

Nc1nc(N)c2c(ccc3c2ccn3Cc2cccc([N+](=O)[O-])c2)n1
T/C (dose: 2.38 mg/kg/injection, vehicle: saline with Tween-80): 98 % of control and 109 % of control
T/C (dose: 4.69 mg/kg/injection, vehicle: saline with Tween-80): 117 % of control
T/C (dose: 4.75 mg/kg/injection, vehicle: saline with Tween-80): 115 % of control
T/C (dose: 9.38 mg/kg/injection, vehicle: saline with Tween-80): 121 % of control
T/C (dose: 9.5 mg/kg/injection, vehicle: saline with Tween-80): 118 % of control
T/C (dose: 38.0 mg/kg/injection, vehicle: saline with Tween-80): 153 % of control and 155 % of control

O=C1[C@@H]2C3C=CC([C@H]4C(=O)N(CO)C(=O)[C@@H]34)[C@@H]2C(=O)N1CO
T/C [2]: 102 % of control
T/C [3]: 102 % of control
T/C [4]: 98 % of control
